# Results from ChEMBL document CHEMBL3046443, “Lipid lowering and antioxidant activity of flavones in triton treated hyperlipidemic rats” (2011).
# Legend:
# Format in all cases: functional
# [1] = Antioxidant activity assessed as hydroxyl radical scavenging activity at 200 ug/ml
# [2] = tested on: Rattus norvegicus; experiment: Antihyperlipidemic activity in Rattus norvegicus Charles Foster (rat) trition WR-1339-induced hyperlipidemic model assessed as reduction of total phospholipid level in plasma at 200 mg/kg, po; set-up: scale not given: the % may be the effect or the level left
# [3] = tested on: Rattus norvegicus; experiment: Antihyperlipidemic activity in Rattus norvegicus Charles Foster (rat) trition WR-1339-induced hyperlipidemic model assessed as reduction of total cholesterol level in plasma at 200 mg/kg, po; set-up: scale not given: the % may be the effect or the level left
# [4] = tested on: Rattus norvegicus; experiment: Antihyperlipidemic activity in Rattus norvegicus Charles Foster (rat) trition WR-1339-induced hyperlipidemic model assessed as reduction of total triglyceride level in plasma at 200 mg/kg, po; set-up: scale not given: the % may be the effect or the level left
# [5] = Antioxidant activity assessed as hydroxyl radical scavenging activity at 100 ug/ml
# [6] = Antioxidant activity assessed as inhibition of xanthine-xanthine oxidase generated superoxide anion radical production at 100 ug/ml after 30 min by NBT reduction assay
# [7] = Antioxidant activity assessed as inhibition of xanthine-xanthine oxidase generated superoxide anion radical production at 200 ug/ml after 30 min by NBT reduction assay
smiles,measurement,setting,value
OC[C@@H](O)[C@@H](O)[C@H](O)[C@H](O)CO,Activity,[1],-48%
C/C=C1\C(=O)C[C@H]2[C@@H]3CCC4=CC(=O)CC[C@]4(C)[C@H]3CC[C@]12C [GUGGULSTERONE],Activity,[2],35%
same,Activity,[3],35%
same,Activity,[4],36%
O=c1c(O)c(-c2cc(O)c(O)c(O)c2)oc2cc(O)cc(O)c12 [MYRICETIN],Activity,[2],25%
same,Activity,[3],24%
same,Activity,[5],-36%
same,Activity,[4],24%
same,Activity,[1],53%
same,inhibition,[6],27%
O.O=C1CC(c2ccc(O)cc2)Oc2cc(O)cc(O)c21 (centres undefined) [NARINGENIN HYDRATE],Activity,[2],27%
same,Activity,[3],27%
same,Activity,[5],26%
same,Activity,[4],26%
same,Activity,[1],38%
same,inhibition,[7],34%
same,inhibition,[6],19%
C[C@@H]1O[C@@H](OC[C@H]2O[C@@H](Oc3c(-c4ccc(O)c(O)c4)oc4cc(O)cc(O)c4c3=O)[C@H](O)[C@@H](O)[C@@H]2O)[C@H](O)[C@H](O)[C@H]1O [RUTIN],Activity,[2],10%
same,Activity,[3],8%
same,Activity,[5],21%
same,Activity,[4],11%
same,Activity,[1],32%
same,inhibition,[7],35%
same,inhibition,[6],18%
